From patent publication US20080070987A1, “META-XYLYLENEDIAMINE VANADATE SALTS” (priority 2006, published 2008) come the findings set out here.

The test system of data set [1] is isolated mouse adipocytes. As to the kind of experiment: Glucose (2-deoxyglucose) transport in isolated mouse adipocytes. As to conditions: 100 μM. It is filed as cell-based, FVB mice. How it is done:
Adipose cells from FVB mice were incubated for 45 minutes in basal conditions (Basal) or in the presence of 100 nM insulin (Ins), and different concentrations of hexaquis(benzylammonium) decavanadate (B6V10) in the absence or in the presence of 1 mM semicarbazide (SCZ) and thereafter, 2-DG transport was measured over 5 min.

For data set [2], the system named is streptozotocin-induced diabetic rats. It counts as in vivo, rat. As to conditions: for effect on glycemia / circulating glucose, in words: 2.5 μmol/kg subcutaneous minipumps. How it is done: (§1) Male Wistar rats weighting 180-220 g were purchased from Harlan (Interfauna Ibérica S.A., Spain). Diabetes was induced by a single intraperitoneal injection of a freshly prepared solution of streptozotocin (in some studies the dose was 45 mg/kg body weight and in some others 100 mg/kg body weight dissolved in 50 mM citrate buffer, pH 4.5). Only diabetic animals with glycemia above 300 mg/dl were used. The animals were housed in animal quarters at 22° C. with a 12 h light/12 h dark cycle and were fed ad libitum. All procedures used were approved by the animal ethical committee of the University of Barcelona, Spain. Male mice C57 BL/Ks bearing the db/db mutation (Jackson Laboratories, Bar Harbor, Me.) were purchased from Harlan France (Gannat, France). C57BL/6J male mice were assigned for 16 weeks to very high-fat diet containing (in kcal): 72% from fat, 28% from proteins and <1% from carbohydrates (Burcelin et al., 2002, Am. J. Physiol. Endocrinol. Metab 282: E834-E842).
(§2) Osmotic minipumps delivering B6V10 (2.5 μmol/kg body wt/day) or decavanadate (2.5 μmol/kg body wt/day) were implanted subcutaneously in diabetic rats anaesthetised by ketamine hydrochloride (95 mg/kg) and xylasine (10 mg/kg). […] Glycemia was measured on arterio-venous blood collected from the tail vessels at 09:00 am for two weeks, before the administration of vanadate. Insulin concentrations were determined before and after treatment. In another set of experiments, B6V10 was orally administered at a single dose of 5 μmol/kg/day during the first week and 10 μmol/kg/day during 2 additional weeks by gastric gavage. A control group received the corresponding decavanadate salt in the absence of benzylamine. At the end of the treatment, animals were sacrificed and the liver, fat pad, heart and lung were kept at −80° C. and the plasma at −20° C. until their use for in vitro analysis.
(§3) In glucose tolerance tests and in chronic treatments, circulating glucose concentrations were determined by a rapid glucose analyser (Accutrend® Sensor Comfort, Roche, Basel. Switzerland). Plasma insulin (IRI) concentration was determined by ELISA method using a kit obtained from Crystal Chem. Inc. (Downers Grove, Ill.). Plasma triglycerides (Biosystems, Barcelona, Spain) and NEFAS (Wako Chemicals, Neuss, Germany) were determined with standard […] methods.
To this end, rats were made diabetic by the injection of a large dose of streptozotocin (100 mg/kg) that eliminates β-pancreatic insulin content. […] These streptozotocin-induced diabetic rats were subcutaneously treated with B6V10 (2.5 μmol/kg) (solid squares, FIG. 9A) delivered by osmotic minipumps or left untreated (solid circles, FIG. 9A). Sham-operated nondiabetic rats were also untreated (solid triangles, FIG. 9A).
The concentration of circulating glucose under these conditions was also assayed. After 28 days of treating diabetic rats with hexaquis(benzylammonium) decavanadate (2.5 μmol/kg) (wide striped bars, FIG. 9B), or with decavanadate (close striped bars, FIG. 9B) delivered by osmotic minipumps, plasma insulin and glucose were measured. Untreated diabetic (solid bars, FIG. 9B) or nondiabetic rats (open bars, FIG. 9B) were similarly assayed as controls.

Data set [3] has the same test system. As to the kind of experiment: Chronic subcutaneous (osmotic minipump) treatment of streptozotocin-induced diabetic rats, glycemia. It counts as in vivo, rat. The following applies: for effect on glycemia, in words: streptozotocin (45 mg/kg) diabetic rats, 2.5 μmol/kg/day subcutaneous by osmotic minipumps, about two weeks. How it is done: FIG. 3 is a graphical illustration of hexaquis(benzylammonium) decavanadate chronic treatment effect on glycemia of diabetic rats by streptozotocin. In FIG. 3, [G] corresponds to the blood concentration of glucose (expressed in mg/dl) measured at different days of treatment (t/d). Diabetic rats were treated, by mini-osmotic pumps, with buffered solution (black diamonds), with hexaquis(benzylammonium) decavanadate (2.5 μmol/kg/day) (black squares) or with identical dose of sodium decavanadate (white circles).
The effect of chronic administration of hexaquis(benzylammonium) decavanadate on glycemia from diabetic rats was determined. Diabetes was induced in rats by intravenous administration of streptozotocin, which destroys the β-pancreatic cells that produce insulin.
as §1, §2, §3
Chronic in vivo efficacy of B6V10 was evaluated in streptozotocin-induced diabetic rats and in db/db mice. Streptozotocin-induced (45 mg/kg) diabetic rats were subcutaneously treated with hexaquis(benzylammonium) decavanadate (2.5 μmol/kg) (B6V10, solid squares, FIG. 8A) or with decavanadate (2.5 μmol/kg) (V10, open circles, FIG. 8A) delivered subcutaneously by osmotic minipumps implanted in the dorsal region. Diabetic rats were also sham-operated (untreated, solid diamonds, FIG. 8A). […] These experiments were repeated using an oral administration protocol. Streptozotocin-induced (45 mg/kg) diabetic rats were orally treated with hexaquis(benzylammonium) decavanadate (5 μmol/kg from day 0 to day 7 and 10 μmol/kg/day from day 7 to day 17) (B6V10, solid squares, FIG. 8B) or received decavanadate (10 μmol/kg) (V10, open circles, FIG. 8B). […]

Where [4] appears, read: streptozotocin 100 mg/kg, 2.5 μmol/kg minipumps, 28 days.

“hexaquis(benzylammonium) decavanadate [Example B6V10]”: in data set [1], the “stimulation of glucose transport (% increase)” value was 93%. In addition, the “effect on body weight or organ weights” value in data set [2] (rat, in vivo) is on record as “did not affect body weight or organ weights”. In data set [2] (setting [4]), the “plasma glucose after 28 days of treatment” value was “plasma glucose was reduced” and the “plasma insulin after 28 days of treatment” value is reported as “without any observable change in the amount of insulin”. In addition, the “effect on glycemia / circulating glucose, in words” value in data set [2] (streptozotocin 100 mg/kg) is “reducing glycemia”. Besides, the “time at which reduction of hyperglycemia was detected” value in data set [3] (2.5 μmol/kg/day subcutaneous minipumps) is listed as “after only four days of treatment”. In addition, the “glucose transport in adipocytes isolated from treated rats” value in data set [3] (adipocytes isolated at fourteen days of treatment) was “increased glucose transport under basal conditions equivalent to that seen in the presence of insulin”. Moreover, the “effect on glycemia, in words” value in data set [3] was “significant correction of hyperglycemia”. Also, the “effect on glycemia, in words” value in data set [3] (listed as hexaquis(benzylammonium) decavanadate) is on record as “rapid reduction of the hyperglycemia”.

“sodium decavanadate [Example V10, reference compound]”: the “effect on glycemia / circulating glucose, in words” value in data set [2] (streptozotocin 100 mg/kg) is “did not show any change in circulating glucose”. Further, the “effect on glycemia, in words” value in data set [3] is “did not alter glycemia”; in data set [3] (listed as sodium decavanadate), “did not modify substantially its glycemia”.
